# Values quoted from earlier work as cited in US5723149A, “Use of medicago saponins for the preparation of cosmetic or pharmaceutical compositions, especially dermatological compositions, promoting renewal of the epidermis, stimulating hair regrowth or delaying hair loss” (LVMH Recherche, priority 1990, dated 1998).
# Legend:
# [1] = DE-3 717 280
# [2] = B. GESTETNER et al., Experientia, 1971
structure (smiles),measurement,setting,value
CC1(C)CC[C@]2(C(=O)O)CC[C@]3(C)C(=CC[C@@H]4[C@@]5(C)C[C@H](O)[C@H](O)[C@@](C)(C(=O)O)[C@@H]5CC[C@]43C)[C@@H]2C1 [medicagenic acid],antifungal activity,[1],antifungal activity
same,hemolytic activity,[2],hemolytic activity
